Drawing on paper PMC2453323 (PLoS Pathogens, 2008), this text covers Km for one molecule.

Common to all, as to format: biochemical
For assay [1], the target named is neuraminidase (H275Y) of A(H1N1) clinical isolate 1154/08 (Influenza A virus (H1N1), UniProt G3LYR2).
The target in assay [2] is neuraminidase (H275Y) of A(H1N1) clinical isolate 1208/08 (Influenza A virus (H1N1), UniProt G3LYR2).
For assay [3], the target named is neuraminidase of A(H1N1) clinical isolate 0006/07 (Influenza A virus (H1N1), UniProt D5F1R0, K249G).
The target in assay [4] is neuraminidase (H275Y) of A(H1N1) clinical isolate 0910/08 (Influenza A virus (H1N1), UniProt G3LYR2).
The target in assay [5] is neuraminidase (H275Y) of A(H1N1) clinical isolate 0749/07 (Influenza A virus (H1N1), UniProt D5F1R0, D354G/H275Y).
The target in assay [6] is neuraminidase (H275Y) of A(H1N1) clinical isolate 0341/07 (Influenza A virus (H1N1), UniProt D5F1R0, D354G/H275Y).
The target of assay [7] is neuraminidase (H275Y) of A(H1N1) clinical isolate 0644/07 (Influenza A virus (H1N1), UniProt D5F1R0, D354G/H275Y).
The target of assay [8] is neuraminidase (H275Y) of A(H1N1) clinical isolate 0577/07 (Influenza A virus (H1N1), UniProt D5F1R0, D354G/H275Y).
Assay [9] addresses neuraminidase (H275Y) of the 11 resistant H1N1 viruses from the 2007–2008 season (Influenza A virus (H1N1), UniProt G3LYQ1, H275Y). Conditions: read-out: Mean Km, group Mean.
The target of assay [10] is neuraminidase (H275Y) of A(H1N1) clinical isolate 0847/07 (Influenza A virus (H1N1), UniProt D5F1R0, D354G/H275Y).
Assay [11] addresses neuraminidase (H275Y) of A(H1N1) clinical isolate 1157/08 (Influenza A virus (H1N1), UniProt G3LYR2, G214E).
For assay [12], the target named is neuraminidase (H275Y) of A(H1N1) clinical isolate 0963/08 (Influenza A virus (H1N1), UniProt G3LYR2, G354D).
In assay [13] the target is neuraminidase (H275Y) of A(H1N1) clinical isolate 1170/08 (Influenza A virus (H1N1), UniProt G3LYR2).

A word on the Km: it is the concentration of substrate that gives half-maximal velocity. On to `CC(=O)N[C@@H]1[C@@H](O)C[C@](Oc2ccc3c(C)cc(=O)oc3c2)(C(=O)O)O[C@H]1C(O)[C@H](O)CO` (stereo partly shown) [MUNANA], for which the Km in assay [1] came out at 14.5 µM; in assay [2], 19 µM; in assay [3], 12.4 µM; in assay [4], 25 µM; in assay [5], 18 µM; in assay [6] it was 18 µM. The Km in assay [7] worked out at 18.4 µM; in [8] it was 19.5 µM; in [9], 19.4 µM; in assay [10], 24 µM; in [11] it was 20 µM; in [12], 18.4 µM. Besides, the Michaelis-Menten constant (Km) in [13] amounted to 18.2 µM.
